Test results published in patent US20230075368A1, “IDENTIFICATION OF AN EGFR-BIN3 PATHWAY THAT ACTIVELY SUPPRESSES INVASION AND REDUCES TUMOR SIZE IN GLIOBLASTOMA” (The United States Govemment as represented by the …, priority 2020, published 2023).

Tested on: Mayo PDX cells
Assay: Matrigel invasion assay
Format: cell-based, human
Description: Invasion status of cells was tested with Matrigel Boyden chamber assays (Fisher). 1×10^5 cells were plated on BD BioCoat Matrigel invasion chambers. 24 hours after treatment with drugs, invaded cells were stained with the HEMA-3 kit (Fisher). Invaded cells were counted in 4-5 random fields.
An equal number of cells (5×10^4) were seeded on Matrigel coated inserts, and were untreated (control vehicle) or stimulated with 50 ng/ml EGF for 24 hours, cells invading to the other side of the membrane were counted and presented as percentage cell invasion. […] A similar invasion assay was conducted on GBM26 cells (FIG. 2D). […] Cells were transfected with EGFR or scrambled siRNA for 48 hours before the invasion assay. A similar invasion assay was performed on GBM6 (FIG. 2G). […] Cells were transiently transfected with empty or EGFR wildtype (EGFRwt) overexpressing vector, and invasion assay was performed after 48 hours after transfection. […] Cells were treated with or without 50 ng/ml EGF for 48 hours before the assay. The Western blot images are representative of three independent biological replicates. Actin served as loading control. Data are represented as mean±SEM from three independent experiments. *P<0.05, **P<0.01, n.s. not significant, unpaired two-tailed Student's t-test.
FIG. 3C and FIG. 3D show the results of a Matrigel invasion assay of EGFR siRNA knockdown in GBM12 and GBM6 in response to EGF. Cells were treated with EGFR or scrambled siRNA for 48 hours, transfected cells were seeded on Matrigel coated inserts and were treated with or without 50 ng/ml EGF for 24 hours. […] Cells were transiently transfected with EGFRvIII expression or empty vector, invasion assay was performed 48 hours after transfection. […] Western blot images are representative of three independent biological replicates. Actin served as a loading control. Data are represented as mean±SEM from three independent experiments. […], **P<0.01, ***P<0.001, n.s. not significant, unpaired two-tailed t-test.

C#Cc1cccc(Nc2ncnc3cc(OCCOC)c(OCCOC)cc23)c1 [erlotinib, Erlotinib]
cell invasion (erlotinib 1 μM, 24 hours, GBM12, GBM26): suppressed the invasiveness
cell invasion (erlotinib, 48 h): returns to baseline
